Test system: 3T3 fibroblasts
Assay: Measurement of EGF activities using 3T3 fibroblasts, corrected to NIBSC EGF standard product
Type: cell-based
Conditions: recombinant EGF of purity 90% or more
Procedure: According to an embodiment of the present invention, the EGF may be an EGF which is prepared from a recombinant E. coli or a plant and is purified to a purity of 90% or more.

epidermal growth factor [EGF, peptide of 6,200 Da with 53 amino acid residues, prepared from recombinant E. coli or a plant, purity 90% or more]
EGF activity per mg: one million

From patent publication US10543160B2, “Cosmetic composition including water soluble scrub particles containing polypeptide and/or cell culture” (PAEAN AESTHETICS INC., priority 2015, dated 2020)
